Results as given in US5739291A, “Glutamate receptor antibodies” (The Salk Institute For Biological Studies, priority 1995, dated 1998).
Like-named read-outs stand apart in the source and are kept apart here. One block for each molecule: values may come before it.

Assays:
[1] = test system: kainate receptor; type: cell-based, rat
Description: A directional cDNA library (λZAPII RTB1; complexity: 8×10^5 elements), consisting of 18 independent sublibraries of 44,000 clones each, was constructed from this poly(A)^+ RNA using the bacteriophage expression vector λZAPII. A pool of in vitro transcripts, comprised of transcripts made separately from all 18 amplified sublibraries, was injected into oocytes. […] Subsequently, pools of 44,000 clones (=the single sublibraries), 4,000, 400 and 40 clones were tested.

[2] = target: T1, GluR1 (Rattus norvegicus, UniProt P19490); test: Voltage-clamp recording in Xenopus oocytes injected with GluR1 in vitro RNA; type: cell-based; settings: for inhibition of kainate-evoked depolarizations (in words) / agonist properties (in words): each at 1 mM
T1 construct: expressed in transfected cells; host or cells: Xenopus oocytes injected with GluR1 in vitro sense RNA
T1 sequence (P19490 19-907 S67T/A248R/S789T): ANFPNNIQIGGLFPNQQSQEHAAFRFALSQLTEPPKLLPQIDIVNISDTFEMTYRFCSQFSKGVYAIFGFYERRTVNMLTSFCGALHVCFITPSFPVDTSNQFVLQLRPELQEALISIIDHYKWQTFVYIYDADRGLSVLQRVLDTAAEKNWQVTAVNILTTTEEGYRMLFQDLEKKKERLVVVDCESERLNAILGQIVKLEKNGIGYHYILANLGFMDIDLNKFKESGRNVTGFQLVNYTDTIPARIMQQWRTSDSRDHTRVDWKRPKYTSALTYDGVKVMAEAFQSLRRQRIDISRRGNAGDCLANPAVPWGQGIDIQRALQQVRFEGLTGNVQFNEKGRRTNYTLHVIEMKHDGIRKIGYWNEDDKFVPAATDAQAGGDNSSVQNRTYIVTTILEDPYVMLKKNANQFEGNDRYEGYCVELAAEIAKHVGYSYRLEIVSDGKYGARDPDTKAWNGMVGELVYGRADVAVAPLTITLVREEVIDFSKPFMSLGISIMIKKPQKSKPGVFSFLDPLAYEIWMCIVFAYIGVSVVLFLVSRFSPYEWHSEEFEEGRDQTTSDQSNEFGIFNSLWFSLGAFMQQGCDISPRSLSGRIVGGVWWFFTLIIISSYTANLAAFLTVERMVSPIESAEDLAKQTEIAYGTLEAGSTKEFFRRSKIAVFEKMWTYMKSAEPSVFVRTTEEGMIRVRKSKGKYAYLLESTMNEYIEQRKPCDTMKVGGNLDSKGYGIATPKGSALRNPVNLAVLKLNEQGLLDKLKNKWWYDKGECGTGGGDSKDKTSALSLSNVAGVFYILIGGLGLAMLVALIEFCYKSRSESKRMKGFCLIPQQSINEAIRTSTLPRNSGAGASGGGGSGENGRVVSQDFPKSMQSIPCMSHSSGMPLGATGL
Description: Either a λZAP cDNA preparation, or a plasmid containing the cDNA to be tested, are cut downstream from the cDNA insert with a restriction enzyme. The post-restriction digest is digested with Proteinase K and then extracted with two phenol: chloroform (1:1) extractions. The resulting DNA fragments are then ethanol precipitated. The precipitated fragments are mixed with either T3 RNA polymerase (to make sense strand), or T7 RNA polymerase (to make anti-sense strand), plus rATP, rCTP, rGTP, rUTP, and RNase inhibitor. Simultaneously, the RNA transcripts are capped with a sodium diguanosine triphosphate [G(5')ppp(5')G] cap. The water used for the above procedures is treated with diethylpyrocarbonate to inactivate RNases.
The in vitro synthesized mRNA transcripts are injected into Xenopus oocytes. 50 nl of an RNA solution, 0.2-0.6 mg/ml, is injected into the stage V oocytes. The injected oocytes are incubated at 16° C. in Barth's medium for 2-7 days before they are analyzed for the presence of functional receptors.
Voltage recordings are made by penetrating the oocyte with a micro-electrode filled with 3M KCl and connected to the bridge circuit of an appropriate voltage clamp unit, e.g., the Dagan 8500 voltage clamp unit. Voltage recordings are preferably obtained with two electrodes, a voltage electrode filled with 3M KCl and a current electrode filled with 0.25M CsCl, 0.25M CsF and 50 mM EGTA (ethylene glycol tetraacetic acid).
Oocytes employed herein are obtained from ovarian tissue from anesthetized adult female Xenopus. The ovarian tissue is treated with collagenase, 2 mg/ml, for two hours and then the ovarian epithelium and follicular cells are dissected away.
The plasmid pGluR1 was subsequently rescued from bacteriophage λZAPII-GluR1.
3 days prior to the recording. The oocytes were voltageclamped at -70 mV,
applied by rapid superfusion, with 5 minute intervals between drugs. Peak
currents were recorded; each number represents the average of 3 recording
from 3 different oocytes, ± SEM.
(§1) The data in FIG. 3B represent the responses of oocytes to the indicated agonists measured 3 days after injection with GluR1 (2 ng) or GluR3 (2 ng) RNA or adult rat brain hippocampus poly(A)^+ RNA (~50 ng). All values are normalized to the response obtained with […] and are presented as the mean ± S.E.M. with n≥3 for all measurements.

[3] = target: T2, homomeric GluR6 receptor (Rattus norvegicus, UniProt P42260, I567V/Q621R/Y571C); test: Homomeric GluR6 ion channel in Xenopus oocytes injected with in vitro transcribed RNA; type: cell-based; settings: for current at -70 mV: 10 μM kainate; for responsiveness of homomeric ion channels: summary statement
T2 construct: A 4559 base pair cDNA encoding a protein of 884 amino acid residues was engineered from RC11 and RC27; expressed in transfected cells; host or cells: Xenopus oocytes injected with in vitro transcribed GluR6 RNA
T2 sequence (P42260 with tags, fused parts or gaps I567V/Y571C/Q621R): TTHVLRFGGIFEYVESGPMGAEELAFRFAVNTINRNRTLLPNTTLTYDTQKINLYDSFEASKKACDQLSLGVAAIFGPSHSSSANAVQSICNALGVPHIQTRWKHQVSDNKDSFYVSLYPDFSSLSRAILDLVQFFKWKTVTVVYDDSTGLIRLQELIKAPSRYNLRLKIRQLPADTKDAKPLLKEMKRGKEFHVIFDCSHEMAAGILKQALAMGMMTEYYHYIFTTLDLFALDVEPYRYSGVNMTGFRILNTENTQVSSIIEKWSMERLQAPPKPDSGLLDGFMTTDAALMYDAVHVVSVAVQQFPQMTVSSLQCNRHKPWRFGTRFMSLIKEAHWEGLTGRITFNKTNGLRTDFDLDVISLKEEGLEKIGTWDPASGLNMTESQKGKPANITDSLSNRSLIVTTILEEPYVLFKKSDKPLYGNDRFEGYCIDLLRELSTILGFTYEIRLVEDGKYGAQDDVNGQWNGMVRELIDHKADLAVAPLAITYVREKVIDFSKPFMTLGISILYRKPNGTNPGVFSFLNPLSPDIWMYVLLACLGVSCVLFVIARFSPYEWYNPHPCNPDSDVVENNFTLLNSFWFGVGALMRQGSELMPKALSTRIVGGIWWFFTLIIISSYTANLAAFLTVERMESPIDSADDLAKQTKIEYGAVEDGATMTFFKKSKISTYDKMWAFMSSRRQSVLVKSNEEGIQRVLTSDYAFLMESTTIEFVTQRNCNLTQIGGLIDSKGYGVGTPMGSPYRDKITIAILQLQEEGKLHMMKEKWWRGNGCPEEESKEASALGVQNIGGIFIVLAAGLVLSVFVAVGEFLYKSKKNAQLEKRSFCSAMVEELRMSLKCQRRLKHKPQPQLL

[4] = target: GluR5-1 (Rattus norvegicus, UniProt P22756); type: cell-based
GluR5-1, sequence (P22756 with tags, fused parts or gaps K282L/C354W/A355R/A477G/DEL870-898): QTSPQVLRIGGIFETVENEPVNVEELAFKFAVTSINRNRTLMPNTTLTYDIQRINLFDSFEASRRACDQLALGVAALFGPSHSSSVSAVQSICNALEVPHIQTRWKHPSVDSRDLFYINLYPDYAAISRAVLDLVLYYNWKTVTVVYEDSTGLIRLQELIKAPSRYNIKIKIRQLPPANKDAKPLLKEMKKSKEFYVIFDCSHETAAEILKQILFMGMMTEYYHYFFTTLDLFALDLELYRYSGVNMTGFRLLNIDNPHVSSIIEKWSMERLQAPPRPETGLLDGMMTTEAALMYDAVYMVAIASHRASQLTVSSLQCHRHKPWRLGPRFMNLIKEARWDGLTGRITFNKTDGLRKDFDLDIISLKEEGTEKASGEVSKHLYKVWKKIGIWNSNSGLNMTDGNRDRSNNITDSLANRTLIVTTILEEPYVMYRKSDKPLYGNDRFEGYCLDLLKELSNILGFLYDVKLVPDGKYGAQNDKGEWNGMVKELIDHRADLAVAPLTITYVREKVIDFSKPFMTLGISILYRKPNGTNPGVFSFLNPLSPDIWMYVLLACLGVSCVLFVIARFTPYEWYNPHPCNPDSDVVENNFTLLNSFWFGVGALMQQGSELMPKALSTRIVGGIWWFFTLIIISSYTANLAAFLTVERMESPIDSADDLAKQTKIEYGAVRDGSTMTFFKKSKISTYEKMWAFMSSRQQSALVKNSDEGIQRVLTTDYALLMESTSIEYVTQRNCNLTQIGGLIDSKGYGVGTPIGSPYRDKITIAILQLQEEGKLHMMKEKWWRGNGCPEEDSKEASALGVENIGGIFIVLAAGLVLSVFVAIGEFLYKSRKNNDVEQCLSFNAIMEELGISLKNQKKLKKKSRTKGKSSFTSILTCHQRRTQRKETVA
Description: (§2) In vitro synthesized GluR5-1 and GluR5-2 cRNAs were individually expressed in Xenopus oocytes.

[5] = target: GluR5-2 (Rattus norvegicus, UniProt P22756); type: cell-based
GluR5-2, sequence (P22756 31-949): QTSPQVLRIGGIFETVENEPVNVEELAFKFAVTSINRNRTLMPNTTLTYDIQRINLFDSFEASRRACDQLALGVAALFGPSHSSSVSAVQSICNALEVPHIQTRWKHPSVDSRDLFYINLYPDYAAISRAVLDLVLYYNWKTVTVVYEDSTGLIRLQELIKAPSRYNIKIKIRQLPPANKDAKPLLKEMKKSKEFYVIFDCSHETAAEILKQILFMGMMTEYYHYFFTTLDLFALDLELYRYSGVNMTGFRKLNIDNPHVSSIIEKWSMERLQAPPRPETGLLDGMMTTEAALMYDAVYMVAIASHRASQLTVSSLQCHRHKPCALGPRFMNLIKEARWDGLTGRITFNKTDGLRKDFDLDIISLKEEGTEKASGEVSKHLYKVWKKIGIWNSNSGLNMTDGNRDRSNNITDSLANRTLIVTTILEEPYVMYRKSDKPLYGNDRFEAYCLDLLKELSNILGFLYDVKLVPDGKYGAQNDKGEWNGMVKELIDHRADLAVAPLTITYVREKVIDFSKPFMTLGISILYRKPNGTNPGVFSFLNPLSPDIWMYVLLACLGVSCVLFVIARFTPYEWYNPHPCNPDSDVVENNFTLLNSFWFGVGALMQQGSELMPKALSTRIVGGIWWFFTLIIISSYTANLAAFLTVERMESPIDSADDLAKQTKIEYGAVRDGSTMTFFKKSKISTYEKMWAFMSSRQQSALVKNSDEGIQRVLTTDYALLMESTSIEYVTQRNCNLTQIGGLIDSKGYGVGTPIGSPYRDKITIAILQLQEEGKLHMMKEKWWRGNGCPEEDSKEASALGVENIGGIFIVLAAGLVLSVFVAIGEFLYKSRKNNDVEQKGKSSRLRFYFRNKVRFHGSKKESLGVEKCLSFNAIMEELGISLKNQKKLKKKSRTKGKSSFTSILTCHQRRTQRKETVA
Description: as §2

[6] = target: GluR3 (Rattus norvegicus, UniProt P19492); type: cell-based
GluR3, sequence (P19492 23-888): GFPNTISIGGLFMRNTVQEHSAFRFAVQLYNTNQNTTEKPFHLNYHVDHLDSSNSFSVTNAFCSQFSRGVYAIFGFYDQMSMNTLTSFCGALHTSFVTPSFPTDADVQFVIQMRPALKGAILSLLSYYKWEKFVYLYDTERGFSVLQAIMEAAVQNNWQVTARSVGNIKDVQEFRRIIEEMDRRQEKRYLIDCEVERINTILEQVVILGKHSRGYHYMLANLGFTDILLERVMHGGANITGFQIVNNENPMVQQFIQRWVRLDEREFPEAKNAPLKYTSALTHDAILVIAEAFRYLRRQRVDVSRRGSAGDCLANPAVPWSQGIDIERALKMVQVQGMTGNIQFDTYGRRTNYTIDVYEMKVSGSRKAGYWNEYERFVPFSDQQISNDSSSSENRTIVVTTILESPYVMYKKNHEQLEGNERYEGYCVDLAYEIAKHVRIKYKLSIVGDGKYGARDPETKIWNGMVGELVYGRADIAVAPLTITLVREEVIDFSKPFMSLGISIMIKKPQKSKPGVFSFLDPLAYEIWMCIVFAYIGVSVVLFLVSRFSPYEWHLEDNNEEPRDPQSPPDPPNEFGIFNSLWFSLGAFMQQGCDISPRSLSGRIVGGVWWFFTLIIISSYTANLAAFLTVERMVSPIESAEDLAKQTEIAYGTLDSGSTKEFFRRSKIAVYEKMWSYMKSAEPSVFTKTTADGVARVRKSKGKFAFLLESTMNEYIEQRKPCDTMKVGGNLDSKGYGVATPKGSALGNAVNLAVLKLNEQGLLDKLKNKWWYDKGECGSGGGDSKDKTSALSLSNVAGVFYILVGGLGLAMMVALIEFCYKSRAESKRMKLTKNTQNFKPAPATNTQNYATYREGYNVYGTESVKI
Description: Thus, oocytes were injected with in vitro synthesized RNA transcripts derived from individual cDNA clones.
as §1

[7] = test system: glutamate receptor subtypes; type: cell-based, rat; settings: 2-10 days after injection
[8] = target: kainate receptors derived from forebrain mRNA; settings: read-out: Ki for block of kainate responses; literature value (Verdoorn et al.); cited from earlier work
[9] = oocytes held at -100 mV, before Con A, AMPA 100 μM
[10] = QUIS 10 μM, AMPA 50 μM, GLU 100 μM, NMDA 30 μM plus 10 μM glycine, APB 50 μM, -70 mV, 2 ng RNA, 3 days

Structure (SMILES): C/C(=C/C=C/[C@@H](C)C(=O)O)[C@H]1CN[C@H](C(=O)O)[C@H]1CC(=O)O [domoate, domoic acid]
- response compared with kainate ([1]; 10 μM domoate vs 100 μM kainate): response similar to the one elicited by 100 μM kainate

Structure (SMILES): NCC(=O)O [glycine]
- potentiation of the KA response [2]: did not potentiate the KA response
- responses evoked by unrelated neurotransmitter receptor agonists [2]: failed to evoke responses

Structure (SMILES): O=C(O)c1cc(=O)c2ccccc2[nH]1 [Kynurenic acid]
- inhibition of kainate-evoked depolarizations (in words) [2]: most potent inhibitor
- Compound Alone (%): % of the response evoked by 30 μM kainate immediately before drug application ([2]; xenopus oocytes, 1000 µM): 3.4 ± 0.2%
- Compound Plus Kainate (%): % of the response seen with 30 μM kainate alone ([2]; xenopus oocytes, 1000 µM): 9.6 ± 1.3%

Structure (SMILES): C=C(C)[C@H]1CN[C@H](C(=O)O)[C@H]1CC(=O)O [kainate, kainic acid]
- desensitization of responses ([2]; prolonged (up to 10 minutes) superfusion, 100 μM agonist): did not desensitize
- current at -70 mV ([3]; Con A treated, modified Ringer solution (sodium methanesulfonate)): 330 nA
- current at -70 mV ([3]; Ringer solution, after Con A treatment): 2.3 μa
- current at -70 mV ([3]; Ringer solution, before Con A treatment): 30 nA
- response of Con A treated oocytes ([3]; 100 μM aspartate, 100 μM NMDA with 3 μM glycine, 10-1000 μM AMPA): responded
- time to full recovery from desensitization ([3]; 100 μM kainate for 30 seconds): approximately 15 minutes
- inward current evoked [3, 9]: evoked inward currents that desensitized
- responsiveness of homomeric ion channels [3]: responsive to KA

Structure (SMILES): CN[C@H](CC(=O)O)C(=O)O [NMDA, N-methyl-D-aspartic acid]
- response to agonist [2]: No detectable responses
- responses evoked by other glutamate receptor agonists [2]: evoked no responses
- agonist properties (in words) [2]: did not show any agonist properties
- inhibition of kainate-evoked depolarizations (in words) [2]: slightly inhibited the KA responses
- membrane depolarizations elicited [4]: did not elicit membrane depolarizations
- membrane depolarizations elicited [5]: did not elicit membrane depolarizations
- response of Con A treated oocytes [3]: did not respond
- responses detected [1]: No responses
- response to agonist [6]: No detectable responses
- response to selective agonists [7]: elicited smooth responses with fast onsets

- reduction of kainate-evoked current ([3]; 95% of Cl- substituted by methanesulfonate): 8 fold
Structure (SMILES): CS(=O)(=O)O [methanesulfonate, sodium methanesulfonate]

Structure (SMILES): CCOC(=O)CC[C@H](N)C(=O)OCC [GDEE, glutamate diethylester]
- agonist properties (in words) [2]: displayed weak agonist properties
- inhibition of kainate-evoked depolarizations (in words) [2]: did not block the response significantly
- Compound Alone (%): % of the response evoked by 30 μM kainate immediately before drug application ([2]; xenopus oocytes, 1000 µM): 24.8 ± 5.7%
- Compound Plus Kainate (%): % of the response seen with 30 μM kainate alone ([2]; xenopus oocytes, 1000 µM): 97.8 ± 6.6%

Structure (SMILES): O=C(O)[C@H]1CCCN[C@H]1C(=O)O (relative stereo) [PDA, 2,3cis-piperidine dicarboxylic acid]
- inhibition of kainate-evoked depolarizations (in words) [2]: blocked the GluR1 response
- Compound Alone (%): % of the response evoked by 30 μM kainate immediately before drug application ([2]; xenopus oocytes, 1000 µM): 2.5 ± 0.7%
- Compound Plus Kainate (%): % of the response seen with 30 μM kainate alone ([2]; xenopus oocytes, 1000 µM): 31.3 ± 2.0%

- responses evoked by unrelated neurotransmitter receptor agonists ([2]; concentrations as high as 1 mM): failed to evoke responses
Structure (SMILES): NCCc1c[nH]c2ccc(O)cc12 [serotonin]

Structure (SMILES): CN1CCCC1c1cccnc1 (centres unmarked) [nicotine]
- responses evoked by unrelated neurotransmitter receptor agonists [2]: failed to evoke responses

Structure (SMILES): NCCCC(=O)O [γ-aminobutyric acid]
- responses evoked by unrelated neurotransmitter receptor agonists ([2]; concentrations as high as 1 mM): failed to evoke responses

Structure (SMILES): O=C(O)C1CN(CCCP(=O)(O)O)CCN1 (centres unmarked) [CPP]
- agonist properties (in words) [2]: did not show any agonist properties
- inhibition of kainate-evoked depolarizations (in words) [2]: slightly inhibited the KA responses
- Compound Alone (%): % of the response evoked by 30 μM kainate immediately before drug application ([2]; xenopus oocytes, 1000 µM): 9.1 ± 0.7%
- Compound Plus Kainate (%): % of the response seen with 30 μM kainate alone ([2]; xenopus oocytes, 1000 µM): 78.8 ± 0.9%

Structure (SMILES): Cc1onc(O)c1CC(N)C(=O)O (stereo not drawn) [AMPA, α-amino-3-hydroxy-5-methyl-isoxazole-4-propionic acid]
- effect on kainate-evoked current [3]: nor did it antagonize a kainate-evoked current
- response of Con A treated oocytes [3]: did not respond
- effect of coapplication on kainate-evoked (1 μM) responses ([3]; AMPA 100 μM, Con A treated oocytes): had no effect
- inward current evoked [3, 9]: did not evoke any detectable current
- responsiveness of homomeric ion channels [3]: but not to AMPA

Structure (SMILES): N#Cc1cc2[nH]c(=O)c(=O)[nH]c2cc1[N+](=O)[O-] [CNQX, 6-nitro-7-cyano-quinoxaline-2,3-dione]
- block of agonist-evoked responses [3]: blocked both quisqualate and kainate-evoked responses
- Ki [8]: 0.295 µM

Structure (SMILES): NC(CCP(=O)(O)O)C(=O)O (centres unmarked) [APB, 2-amino-4-phosphonobutyric acid]
- response to agonist [2, 10]: No detectable responses
- membrane depolarizations elicited ([4]; AMPA 50 μM, quisqualate 10 μM, APB 100 μM, NMDA 100 μM with 10 μM glycine): did not elicit membrane depolarizations
- membrane depolarizations elicited ([5]; KA 100 MM, AMPA 50 μM, quisqualate 10 μM, APB 100 μM, NMDA 100 μM with 10 μM glycine): did not elicit membrane depolarizations
- response to agonist [6, 10]: No detectable responses
- response to selective agonists [7]: gave no response

Structure (SMILES): N[C@H](CCC(=O)NCC(=O)O)C(=O)O [γ-DGG, D-glutamylglycine]
- inhibition of kainate-evoked depolarizations (in words) [2]: inhibited kainate responses
- Compound Alone (%): % of the response evoked by 30 μM kainate immediately before drug application ([2]; xenopus oocytes, 1000 µM): -0.1 ± 0.5%
- Compound Plus Kainate (%): % of the response seen with 30 μM kainate alone ([2]; xenopus oocytes, 1000 µM): 30.8 ± 1.1%

Structure (SMILES): N[C@@H](Cn1oc(=O)[nH]c1=O)C(=O)O [quisqualate, quisqualic acid]
- membrane depolarizations elicited [4]: did not elicit membrane depolarizations
- membrane depolarizations elicited [5]: did not elicit membrane depolarizations
- effect on kainate-evoked current [3]: attenuated a subsequent kainate evoked current
- inward current evoked [3]: activated only small inward currents

- agonist properties (in words) [2]: did not show any agonist properties
- inhibition of kainate-evoked depolarizations (in words) [2]: slightly inhibited the KA responses
- Compound Plus Kainate (%): % of the response seen with 30 μM kainate alone ([2]; test compounds 1 mM plus 30 μM kainate, -70 mV, peak currents, average of 3 oocytes ± SEM): 73.7 ± 3.2%
- Compound Alone (%): % of the response evoked by 30 μM kainate immediately before drug application ([2]; test compounds 1 mM, kainate 30 μM, -70 mV, peak currents, average of 3 oocytes ± SEM): 3.1 ± 1.4%
Structure (SMILES): NC(CCCP(=O)(O)O)C(=O)O (centres unmarked) [APV, 2amino-5-phospho-novaleric acid]
